Laboratory results from ChEMBL document CHEMBL1149870, “Synthesis and antibacterial activity of egonol derivatives” (2008).
≈ marks a conversion by molar mass, not a printed value. Calls of active or inactive are those of the source. No cut-off for these calls is given here.

How the values were obtained:
Type in all cases: functional
Escherichia coli = experiment: Antibacterial activity against Escherichia coli by Muller Hilton broth method
Staphylococcus aureus = experiment: Antibacterial activity against Staphylococcus aureus by Muller Hilton broth method
Candida albicans = experiment: Antifungal activity against Candida albicans by Muller Hilton broth method
Bacillus subtilis = experiment: Antibacterial activity against Bacillus subtilis by Muller Hilton broth method

SMILES	MIC (Escherichia coli)	MIC (Staphylococcus aureus)	MIC (Candida albicans)	MIC (Bacillus subtilis)	Activity (Escherichia coli)	Activity (Staphylococcus aureus)	Activity (Candida albicans)
COc1cc(CCCOCCCBr)cc2cc(-c3ccc4c(c3)OCO4)oc12	800 µg/mL (≈ 1790 µM)	256 µg/mL (≈ 572 µM)	800 µg/mL (≈ 1790 µM)	256 µg/mL (≈ 572 µM)			
COc1cc(CCCO)cc2c([N+](=O)[O-])c(-c3ccc4c(c3)OCO4)oc12			800 µg/mL (≈ 2150 µM)	800 µg/mL (≈ 2150 µM)	inactive	inactive	
COc1cc(CCCOC(=O)c2ccccc2)cc2cc(-c3ccc4c(c3)OCO4)oc12	800 µg/mL (≈ 1860 µM)	800 µg/mL (≈ 1860 µM)	800 µg/mL (≈ 1860 µM)	800 µg/mL (≈ 1860 µM)			
COc1cc(CCC=O)cc2cc(-c3ccc4c(c3)OCO4)oc12	800 µg/mL (≈ 2470 µM)	64 µg/mL (≈ 197 µM)	128 µg/mL (≈ 395 µM)	256 µg/mL (≈ 789 µM)			
COc1c(Br)c(CCCO)cc2cc(-c3ccc4c(c3)OCO4)oc12	800 µg/mL (≈ 1970 µM)	800 µg/mL (≈ 1970 µM)	800 µg/mL (≈ 1970 µM)	800 µg/mL (≈ 1970 µM)			

Further lines, with some results ahead:

MIC (Escherichia coli)	MIC (Staphylococcus aureus)	MIC (Candida albicans)	MIC (Bacillus subtilis)	SMILES	Activity (Escherichia coli)	Activity (Staphylococcus aureus)	Activity (Candida albicans)
256 µg/mL (≈ 742 µM)	256 µg/mL (≈ 742 µM)	64 µg/mL (≈ 186 µM)	128 µg/mL (≈ 371 µM)	COc1cc(CCCCl)cc2cc(-c3ccc4c(c3)OCO4)oc12			
400 µg/mL (≈ 1130 µM)	400 µg/mL (≈ 1130 µM)	400 µg/mL (≈ 1130 µM)	400 µg/mL (≈ 1130 µM)	COc1cc(CCCOC=O)cc2cc(-c3ccc4c(c3)OCO4)oc12			
800 µg/mL (≈ 1830 µM)	800 µg/mL (≈ 1830 µM)	800 µg/mL (≈ 1830 µM)	800 µg/mL (≈ 1830 µM)	COc1cc(CCCI)cc2cc(-c3ccc4c(c3)OCO4)oc12			
800 µg/mL (≈ 2450 µM)	800 µg/mL (≈ 2450 µM)	800 µg/mL (≈ 2450 µM)	800 µg/mL (≈ 2450 µM)	COc1cc(CCCO)cc2cc(-c3ccc4c(c3)OCO4)oc12 [EGONOL]			
800 µg/mL (≈ 2390 µM)	800 µg/mL (≈ 2390 µM)		800 µg/mL (≈ 2390 µM)	COc1cc(CCCC#N)cc2cc(-c3ccc4c(c3)OCO4)oc12			inactive
800 µg/mL (≈ 2060 µM)	800 µg/mL (≈ 2060 µM)	400 µg/mL (≈ 1030 µM)	400 µg/mL (≈ 1030 µM)	COc1cc(CCCBr)cc2cc(-c3ccc4c(c3)OCO4)oc12			
